Measured values reported in patent US20260085081A1, “PHOSPHATIDYLAMINE COMPOUNDS INCLUDING A PLURALITY OF TERTIARY AMINO GROUP STRUCTURES AND COMPOSITIONS THEREOF” (PEKING UNIVERSITY, priority 2022, published 2026).

Key:
adipose tissue = assay: Intraperitoneal injection of Fluc-mRNA LNPs, expression and distribution; format: in vivo, mice; details: for Intraperitoneal injection (PL/SM102) expression strength level: ratio of expression PL/SM102; for expression compared with control SM102: intraperitoneal injection
Description: FIG. 10 illustrates the effect of Fluc-mRNA LNPs composed of different structural cationic lipids on the mRNA delivery efficiency after intraperitoneal administration according to some embodiments of the present disclosure. Targeting and expression of PL lipids on adipose tissue after intraperitoneal administration is also evaluated. […] That is to say, the PL lipid structure with the plurality of tertiary amino group structures may enhance the selective targeting of visceral adipocytes. […]
(§1) Finally, the expression levels of lipid nanoparticles with a plurality of tertiary amine groups from the embodiments of the present disclosure after intramuscular injection, white adipocyte administration, and intraperitoneal injection are summarized, and compared with lipid nanoparticles prepared from commercially available cationic lipids MC3 and SM102. […] However, the expression rates of the phosphatidylamine lipids with a plurality of tertiary amine groups from embodiments of the present disclosure are higher than that of SM102.

[1] = Summary of the strongest expressions over the administration routes; details: strongest level of the three administrations
From the text: as §1

[2] = test system: Fluc-mRNA (luciferase expression); assay: In vivo transfection efficiency of Fluc-mRNA lipid nanoparticles after intramuscular injection; parameters: species or system mice; details: for expression in vivo compared with control MC3 / enhancement of in vivo expression with respect to control MC3: DOPE group, weight ratio 10:1; for expression in vivo compared with control MC3 / in vivo transfection (expression, FIG. 5): 3 μg Fluc-mRNA/mouse; for enhancement of in vivo expression with respect to control MC3: 3 g Fluc-mRNA/mouse; for Intramuscular injection (PL/MC3) expression strength level: ratio of expression PL/MC3; for in vivo transfection (expression, FIG. 5): weight ratio lipid nanoparticle/RNA 10:1, DOPE or DSPC group
Description: 6 h after intramuscular injection of mRNA LNPs, mice were injected intraperitoneally with 0.2 mL […] (20 mg/mL PBS solution). After 10 min, mice were anesthetized with isoflurane in oxygen in a ventilated anesthesia room and imaged with an imaging system (IVIS, PerkinElmer), and luminescence was quantified using Living Image software (PerkinElmer).

white adipocyte = assay: White adipocyte administration, expression relative to SM102; format: cell-based; details: for White adipocyte administration (PL/SM102) expression strength level: ratio of expression PL/SM102; for expression compared with control SM102: white adipocyte administration
From the text: as §1

SMILES	Intraperitoneal injection (PL/SM102) expression strength level (adipose tissue)	Summary of the strongest expressions [1]	expression in vivo compared with control MC3 [2]	enhancement of in vivo expression with respect to control MC3 [2]	Intramuscular injection (PL/MC3) expression strength level [2]	in vivo transfection (expression, FIG. 5) [2]	White adipocyte administration (PL/SM102) expression strength level (white adipocyte)	expression compared with control SM102 (white adipocyte)	expression compared with control SM102 (adipose tissue)
CCCCCCCCCCCCN(CCCCCCCCCCCC)CCCN1CCN(CCCNP(=O)(OCCCCCCOC(=O)C(CC)CCCC)OCCCCCCOC(=O)C(CC)CCCC)CC1 (stereo not shown) [PL53]	C (C: ≥0.1 and <1)	A (A: ≥2)	better than that of control MC3	an order of magnitude enhancement	A (A: ≥2)	expressed	B (B: ≥1 and <2)	superior to that of the control SM102	–
CCCCCCCCCCCCN(CCCCCCCCCCCC)CCCN1CCN(CCCNP(=O)(OCCCCCCCCOC(=O)C(CC)CCCCCC)OCCCCCCCCOC(=O)C(CC)CCCCCC)CC1 (stereo not shown) [PL57]	A (A: ≥2)	A (A: ≥2)	better than that of control MC3	an order of magnitude enhancement	A (A: ≥2)	expressed	B (B: ≥1 and <2)	superior to that of the control SM102	superior to that of the control SM102
CC/C=C\C/C=C\C/C=C\C/C=C\C/C=C\CCCC(=O)OCCCCCCOP(=O)(NCCCN1CCN(CCCN(CCCCCCCCCCCC)CCCCCCCCCCCC)CC1)OCCCCCCOC(=O)CCC/C=C\C/C=C\C/C=C\C/C=C\C/C=C\CC [PL60]	D (D: <0.1)	C (C: ≥0.1 and <1)	–	–	–	–	C (C: ≥0.1 and <1)	–	–
CCCCCCCCCCCCN(CCCCCCCCCCCC)CCCN1CCN(CCCNP(=O)(OCCCCCCCCOC(=O)C(CC)CCCC)OCCCCCCCCOC(=O)C(CC)CCCC)CC1 (stereo not shown) [PL56]	A (A: ≥2)	A (A: ≥2)	better than that of control MC3	an order of magnitude enhancement	A (A: ≥2)	expressed	B (B: ≥1 and <2)	superior to that of the control SM102	superior to that of the control SM102
CCCCCCCCC(CCCCCCCC)OC(=O)CCCCCCCOP(=O)(NCCCN1CCN(CCCN(CCCCCCCC(=O)OC(CCCCCCCC)CCCCCCCC)CCCCCCCC(=O)OC(CCCCCCCC)CCCCCCCC)CC1)OCCCCCCCC(=O)OC(CCCCCCCC)CCCCCCCC [PL38]	D (D: <0.1)	C (C: ≥0.1 and <1)	–	–	–	–	C (C: ≥0.1 and <1)	–	–
CCCCC/C=C\C/C=C\CCCCCCCCOP(=O)(NCCCN(CCCCCCCCCCCC)CCc1ccc(CCN(CCCCCCCCCCCC)CCCCCCCCCCCC)cc1)OCCCCCCCC/C=C\C/C=C\CCCCC [PL22]	D (D: <0.1)	C (C: ≥0.1 and <1)	–	–	–	–	C (C: ≥0.1 and <1)	–	–
CCCCC/C=C\C/C=C\CCCCCCCCOP(=O)(NCCCN1CCN(CCCN(CC(O)CCCCCCCCCC)CC(O)CCCCCCCCCC)CC1)OCCCCCCCC/C=C\C/C=C\CCCCC (stereo not shown) [PL23]	C (C: ≥0.1 and <1)	A (A: ≥2)	–	–	A (A: ≥2)	expressed	C (C: ≥0.1 and <1)	–	–
CCCCC/C=C\C/C=C\CCCCCCCCOP(=O)(NCCCN(CCCCCCCCCCCC)CCc1ccc(CCN(C)C)cc1)OCCCCCCCC/C=C\C/C=C\CCCCC [PL21]	C (C: ≥0.1 and <1)	B (B: ≥1 and <2)	–	–	–	–	B (B: ≥1 and <2)	superior to that of the control SM102	–
CCCCCCCCCCCCN(CCCCCCCCCCCC)CCCN1CCN(CCCNP(=O)(OCCCCCCCCOC(=O)C(CCCCCC)CCCCCCCC)OCCCCCCCCOC(=O)C(CCCCCC)CCCCCCCC)CC1 (stereo not shown) [PL58]	C (C: ≥0.1 and <1)	A (A: ≥2)	–	–	A (A: ≥2)	expressed	C (C: ≥0.1 and <1)	–	–
CCCCC/C=C\C/C=C\CCCCCCCCOP(=O)(NCCN(CCN(CCN(C)C)CC(O)CCCCCCCCCC)CC(O)CCCCCCCCCC)OCCCCCCCC/C=C\C/C=C\CCCCC (stereo not shown) [PL20]	B (B: ≥1 and <2)	B (B: ≥1 and <2)	–	–	–	–	B (B: ≥1 and <2)	superior to that of the control SM102	superior to that of the control SM102
CCCCCCCCCCCCN(CCCCCCCCCCCC)CCCN1CCN(CCCNP(=O)(OCCCCCCOC(=O)C(CC)CCCCCC)OCCCCCCOC(=O)C(CC)CCCCCC)CC1 (stereo not shown) [PL54]	B (B: ≥1 and <2)	A (A: ≥2)	–	–	A (A: ≥2)	expressed	B (B: ≥1 and <2)	superior to that of the control SM102	superior to that of the control SM102
CCCCC/C=C\C/C=C\C/C=C\C/C=C\CCCC(=O)OCCCCCCOP(=O)(NCCCN1CCN(CCCN(CCCCCCCCCCCC)CCCCCCCCCCCC)CC1)OCCCCCCOC(=O)CCC/C=C\C/C=C\C/C=C\C/C=C\CCCCC [PL59]	D (D: <0.1)	A (A: ≥2)	–	–	–	–	A (A: ≥2)	superior to that of the control SM102	–
CCC/C=C\C/C=C\C/C=C\C/C=C\C/C=C\C/C=C\CCC(=O)OCCCCCCOP(=O)(NCCCN1CCN(CCCN(CCCCCCCCCCCC)CCCCCCCCCCCC)CC1)OCCCCCCOC(=O)CC/C=C\C/C=C\C/C=C\C/C=C\C/C=C\C/C=C\CCC [PL61]	D (D: <0.1)	C (C: ≥0.1 and <1)	–	–	–	–	C (C: ≥0.1 and <1)	–	–
CCCCCCCCCCC(O)CN(CCCN1CCN(CCCNP(=O)(OCCCCCCCCOC(=O)C(CC)CCCC)OCCCCCCCCOC(=O)C(CC)CCCC)CC1)CC(O)CCCCCCCCCC (stereo not shown) [PL78]	B (B: ≥1 and <2)	B (B: ≥1 and <2)	–	–	–	–	B (B: ≥1 and <2)	superior to that of the control SM102	superior to that of the control SM102
CCCCC/C=C\C/C=C\CCCCCCCCOP(=O)(NCCCN(CC(O)CCCCCCCCCC)CC(O)CN(CC(O)CCCCCCCCCC)CC(O)CCCCCCCCCC)OCCCCCCCC/C=C\C/C=C\CCCCC (stereo not shown) [PL19]	D (D: <0.1)	C (C: ≥0.1 and <1)	–	–	–	–	C (C: ≥0.1 and <1)	–	–
